Our source for the MIC and IC50 values is ChEMBL document CHEMBL3352821, “Cyclic Hexapeptides from the Deep South China Sea-Derived Streptomyces scopuliridis SCSIO ZJ46 Active Against Pathogenic Gram-Positive Bacteria” (J Nat Prod, 2014).

In one test the test system is Klebsiella pneumoniae. Briefly: Antimicrobial activity against Klebsiella pneumoniae ATCC 13883 by serial dilution/CLSI method. The test is classed as functional.
In a further test the test system is Streptococcus pneumoniae. In words: Antimicrobial activity against Streptococcus pneumoniae NCTC 7466 by serial dilution/CLSI method. The test is classed as functional.
In the next test the test system is HepG2. In words: Cytotoxicity against human HepG2 cells after 72 hrs by SRB assay. The test is classed as functional, cell-based. Particulars: HepG2, 72 h.
Test [1] relates to Staphylococcus aureus. Briefly: Antimicrobial activity against methicillin-resistant Staphylococcus aureus shhs-A1 clinical isolate by serial dilution/CLSI method. The test is classed as functional.
Test [2] has as its system Staphylococcus epidermidis. In words: Antimicrobial activity against methicillin-resistant Staphylococcus epidermidis shhs-E1 clinical isolate by serial dilution/CLSI method. The test is classed as functional.
The subject of test [3] is Staphylococcus aureus. In words: Antimicrobial activity against Staphylococcus aureus ATCC 29213 by serial dilution/CLSI method. The test is classed as functional.
A further test concerns NCI-H460. In words: Cytotoxicity against human NCI-H460 after 72 hrs by SRB assay. Type of test: functional, cell-based. As to conditions: NCI-H460, 72 h.
For a further test, the system named is MCF7. In words: Cytotoxicity against human MCF7 cells after 72 hrs by SRB assay. Type of test: functional, cell-based. As to conditions: MCF7, 72 h.
In a further test the test system is SF-268. In words: Cytotoxicity against human SF268 cells after 72 hrs by SRB assay. As to conditions: SF-268, 72 h. Type of test: functional, cell-based.

The structures appear in SMILES notation. Values after ≈ are worked out from the molar mass of the structure shown. Non-standard residues stand in square brackets, D forms with d. Residues, ends and D or L forms follow the SMILES beside them. aIle = CC[C@@H](C)[C@H](N)C(=O)O

Regarding `CN[C@H](CC(C)C)C(=O)N[C@H]1C(=O)N[C@@H](CC(N)=O)C(=O)N[C@H]2C(=O)N[C@H]3C(=O)N[C@H](C(=O)N[C@H](C(=O)O)c4cc(O)cc(O)c4-c4cc3ccc4O)[C@H](O)c3ccc(c(Cl)c3)Oc3cc2cc(c3O[C@@H]2O[C@H](CO)[C@@H](O)[C@H](O)[C@H]2O[C@H]2C[C@](C)(N)[C@H](O)[C@H](C)O2)Oc2ccc(cc2Cl)[C@H]1O` [VANCOMYCIN], the MIC is over 128 µg/mL with Klebsiella pneumoniae and 0.37 µg/mL (≈ 0.255 µM) with Streptococcus pneumoniae.
`CC[C@@H](C)[C@@H]1NC(=O)[C@@H](CC(C)C)NC(=O)[C@H](CC(C)C)NC(=O)[C@H](CC(=O)c2ccccc2NC=O)NC(=O)CNC(=O)[C@H](CC(N)=O)NC1=O`: the IC50 in the test with HepG2, with NCI-H460, with MCF7 and with SF-268 was over 100 µM throughout. For the same compound, the MIC against Staphylococcus aureus [1] is over 128 µg/mL; in test [2] it was over 128 µg/mL; in the test with Staphylococcus aureus [3], over 128 µg/mL; against Klebsiella pneumoniae, over 128 µg/mL; against Streptococcus pneumoniae it was over 100 µg/mL.
Take `CC(C)C[C@@H]1NC(=O)[C@H](Cc2c[nH]c3ccccc23)NC(=O)CNC(=O)[C@H](CC(N)=O)NC(=O)[C@H](C(C)C)NC(=O)[C@@H](CC(C)C)NC1=O`: the IC50 with HepG2, in the test with NCI-H460, in the test on MCF7 and with SF-268 was over 100 µM each time. Also, the MIC against Staphylococcus aureus [1] was over 128 µg/mL; in test [2], 32 µg/mL (≈ 46.9 µM); in the test on Staphylococcus aureus [3] it was 16 µg/mL (≈ 23.4 µM); against Klebsiella pneumoniae, over 128 µg/mL; against Streptococcus pneumoniae, 12.5 µg/mL (≈ 18.3 µM).
On to `CC[C@@H](C)[C@@H]1NC(=O)[C@@H](CC(C)C)NC(=O)[C@H](CC(C)C)NC(=O)[C@H](Cc2c[nH]c3ccccc23)NC(=O)CNC(=O)[C@H](CC(N)=O)NC1=O` [DESOTAMIDE] (cyclo(GWL[dL][aIle]N)), for which the IC50 in the test with HepG2, with NCI-H460, in the test on MCF7 and in the test with SF-268 was over 100 µM throughout. Also, the MIC in the test with Staphylococcus aureus [1] is over 128 µg/mL; in [2], 32 µg/mL (≈ 45.9 µM); with Staphylococcus aureus [3], 16 µg/mL (≈ 23 µM); against Klebsiella pneumoniae it was over 128 µg/mL; in the test on Streptococcus pneumoniae, 12.5 µg/mL (≈ 17.9 µM).
Regarding `CC[C@@H](C)[C@@H]1NC(=O)[C@@H](CC(C)C)NC(=O)[C@H](CC(C)C)NC(=O)[C@H](CC(=O)c2ccccc2N)NC(=O)CNC(=O)[C@H](CC(N)=O)NC1=O`, the IC50 in the test on HepG2, in the test with NCI-H460, with MCF7 and in the test with SF-268 was over 100 µM each time. In addition, the MIC against Staphylococcus aureus [1] is over 128 µg/mL; in test [2], over 128 µg/mL; in the test with Staphylococcus aureus [3], over 128 µg/mL; against Klebsiella pneumoniae, over 128 µg/mL; against Streptococcus pneumoniae, over 100 µg/mL.
